Source: ChEMBL document CHEMBL1121962, “Synthesis of 4-amino-1-beta-D-ribofuranosyl-1H-pyrrolo[2,3-b]pyridine (1-deazatubercidin) as a potential antitumor agent” (J Med Chem, 1982)
The source made the active and inactive calls. No cut-off for these calls is given here.

Experiments:
Mus musculus [1] = species: Mus musculus; assay: Effect tested against murine sarcoma S-180 cells; Inactive; assay type: functional, cell-based
Mus musculus [2] = species: Mus musculus; assay: Effect tested against murine leukemia L1210 cells; Inactive; assay type: functional, cell-based

## Nc1ccnc2c1ccn2C1O[C@H](CO)[C@@H](O)[C@H]1O (some centres not stated)
Mus musculus [1]
  Activity: inactive
Mus musculus [2]
  Activity: inactive
